Assay results published in US7309718B2, “Dibenzocycloheptene compound” (UBE Industries, Ltd., priority 2001, dated 2007).
Like-named read-outs stand apart in the source and are kept apart here.

Legend:
[1] = target: T1, Leukotriene D4 (LTD4) receptor (Cavia porcellus, UniProt Q2NNR5); assay: Leukotriene D4 receptor binding test ([3H]LTD4, lung cell membrane fraction); details: binding inhibition constant vs 0.2 nM [3H]LTD4, guinea pig lung cell membrane fraction, 25° C. 30 minutes
T1 sequence (Q2NNR5 1-340): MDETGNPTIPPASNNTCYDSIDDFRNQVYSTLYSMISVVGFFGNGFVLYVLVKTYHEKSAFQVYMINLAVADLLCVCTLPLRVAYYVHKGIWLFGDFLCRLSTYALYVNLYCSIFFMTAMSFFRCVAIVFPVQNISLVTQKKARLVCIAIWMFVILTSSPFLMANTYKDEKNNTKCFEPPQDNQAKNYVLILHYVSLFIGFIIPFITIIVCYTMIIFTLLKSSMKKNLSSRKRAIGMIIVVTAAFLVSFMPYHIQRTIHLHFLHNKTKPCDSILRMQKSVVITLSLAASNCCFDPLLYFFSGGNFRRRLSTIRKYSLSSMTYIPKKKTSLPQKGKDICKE
Protocol: Leukotriene D4 Receptor Binding Test
<Preparation of Receptor Sample>
As a receptor sample, a lung cell membrane fraction from guinea pigs was used. […] Lungs of Hartley male guinea pigs (400 to 500 g body weight, Japan SLC Inc.) were isolated, and perfused with a physiological saline, and then, adding 10 mM of PIPES, 10 mM of MgCl2 and 10 mM of CaCl2 buffer (pH 7.5) to the lung tissue and the mixture was homogenized. This homogenate was centrifuged at 70,000×g for 10 minutes to obtain a membrane fraction.
<Leukotriene D4 Receptor Binding Test>
To 0.42 mg of the receptor sample were added 10 mM of PIPES, 10 mM of MgCl2 and 10 mM of CaCl2 buffer (pH 7.5) to make the total amount of 480 μl, and 10 μl of [^3H] LTD4 (NEN Life Science Products Inc.) and 10 μl of a test compound in dimethylsulfoxide were added to the mixture, and the resulting mixture was incubated at 25° C. for 30 minutes. The mixtures thus incubated were filtered through a glass fiber filter (Whatman International Ltd., GF/C) using cell harvester (Biomedical Research & Development Laboratories, Inc., M-30R). The filter paper was washed with 10 mM of Tris and 100 mM of NaCl buffer (pH 7.5), and 5 ml of a liquid scintillator (nacalai tesque inc., clearsol I) was added thereto, and radioactivity was measured by a liquid scintillation analyzer (Packard Instrument Co., 2000CA). When a dissociation constant (Kd) of LTD4 was to be obtained, [^3H] LTD4 with 0.03 to 0.5 nM was used, and 1 μM of non-radioactive LTD4 was added. When a binding inhibition constant (Ki) of the Test compound is to be measured, [^3H] LTD4 with 0.2 nM was used.

[2] = test system: Leukotriene D4 (LTD4) induced respiratory constriction; assay: Leukotriene D4 induced respiratory constriction test; format: in vivo, guinea pig; details: Cavia porcellus, po, read-out: LTD4 inhibitory activity
Protocol: Leukotriene D4 Induced Respiratory Constriction Test
Respiratory constriction was measured by modifying the method of Konzett and Rossler (Arch. Exp. Pathol. Pharmakol., 195, pp. 71-74 (1940)). Hartley male guinea pigs (400 to 500 g body weight, Japan SLC Inc.) were anesthetized with pentobarbital (50 mg/kg, s.c.), and a cannula was inserted into the trachea to carry out artificial ventilation with an artificial ventilator (manufactured by Harvard Apparatus, Model 683). An inner pressure of the respiratory tract was measured by a differential pressure transducer (Nihon Kohden, TP-603T) connected to the respiratory cannula and it is used as an index of respiratory constriction.
LTD4 (0.03, 0.06, 0.13, 0.25, 0.5, 1 and 2 μg/kg, Simga-Aldrich) was intravenously administered from a cannula inserted into the right jugular vein from a low dose with an interval of 5 minutes to cause a respiratory constricttion reaction and an increased amount of a respiratory inner pressure was measured. Test compound was suspended in 0.5% sodium carboxymethyl cellulose aqueous solution or dissolved in 30% propylene glycol aqueous solution, and orally administered 24 hours before administration of LTD4. Animals were fasted for 24 hours before administration of the Test compound. […] LTD4 inhibitory activity=(Dose of Compound administered)/{(ED50 of group to which Compound was added)/(ED50 of control group)-1}

[3] = p.o. 24 h before LTD4 i.v., dose of compound shifting the control LTD4 dose-reaction curve two-times to higher dose, anesthetized guinea pigs

Row | Compound | Ki [1] | ED (2-fold shift of LTD4 dose-response) ([2]; 24 h) | other results
1 | O=C([O-])CCSC1c2ccccc2C=Cc2ccc(/C=C/c3ccc4cc(F)c(F)cc4n3)cc21.[Na+] (stereo not shown) [Example Compound 4, Sodium 3-{[3-[(E)-2-(6,7-difluoroquinolin-2-yl)ethenyl]-5H-dibenzo[a,d]cyclohepten-5-yl]thio}propionate] | 0.2 nM | 1.91 µg/kg | melting point: 213 to 216 °C
2 | O=C(O)CCSC1c2ccccc2COc2ccc(OCc3ccc4cc(F)c(Cl)cc4n3)cc21 (stereo not shown) [Compound A, 3-[2-(7-chloro-6-fluoroquinolin-2-yl)methoxy-6,11-dihydrobenz[b,e]oxepin-11-yl]thiopropionic acid, reference compound] |  |  | ED (2-fold shift of LTD4 dose-response) [2, 3]: 25.5 µg/kg
3 | O=C([O-])CCSC1c2cc(/C=C/c3ccc4cc(F)c(Cl)cc4n3)ccc2C=Cc2c(F)cccc21.[Na+] (stereo not shown) [Example Compound 18, Sodium 3-{[3-[(E)-2-(7-chloro-6-fluoroquinolin-2-yl)ethenyl]-9-fluoro-5H-dibenzo[a,d]cyclohepten-5-yl]thio}-propionate] |  | 1.12 µg/kg | 
4 | O=C([O-])CCSC1c2cc(/C=C/c3ccc4cc(F)c(Cl)cc4n3)ccc2C=Cc2c(Cl)cccc21.[Na+] (stereo not shown) [Example Compound 20, Sodium 3-{[3-[(E)-2-(7-chloro-6-fluoroquinolin-2-yl)ethenyl]-9-chloro-5H-dibenzo[a,d]cyclohepten-5-yl]thio}-propionate] |  | 0.7 µg/kg | 
5 | O=C([O-])CC1CC1CSC1c2ccccc2C=Cc2ccc(/C=C/c3ccc4cc(F)c(Cl)cc4n3)cc21.[Na+] (stereo not shown) [Example Compound 16, Sodium 3-{[3-[(E)-2-(7-chloro-6-fluoroquinolin-2-yl)ethenyl]-5H-dibenzo[a,d]cyclohepten-5-yl]thiomethyl}-cyclopropaneacetate] |  | 0.79 µg/kg | 
6 | O=C([O-])CCSC1c2cc(/C=C/c3ccc4cc(F)c(Cl)cc4n3)ccc2C=Cc2c1cccc2C(F)(F)F.[Na+] (stereo not shown) [Example Compound 28, Sodium 3-{[3-[(E)-2-(7-chloro-6-fluoroquinolin-2-yl)ethenyl]-9-trifluoromethyl-5H-dibenzo[a,d]cyclohepten-5-yl]thio}propionate] |  | 1.7 µg/kg | 
7 | C[C@H](CSC1c2ccccc2C=Cc2ccc(/C=C/c3ccc4cc(F)c(F)cc4n3)cc21)C(=O)[O-].[Na+] (stereo partly shown) |  |  | melting point: 240 to 249 °C
8 | O=C([O-])CCSC1c2ccccc2C=Cc2ccc(/C=C/c3ccc4cc(F)c(Cl)cc4n3)cc21.[Na+] (stereo not shown) [Example Compound 7, Sodium 3-{[3-[(E)-2-(7-chloro-6-fluoroquinolin-2-yl)ethenyl]-5H-dibenzo[a,d]cyclohepten-5-yl]thio}propionate] | 0.2 nM | 0.85 µg/kg | melting point: 228 to 238 °C
9 | O=C([O-])CCSC1c2ccccc2C=Cc2ccc(/C=C/c3ccc4ccc(Cl)cc4n3)cc21.[Na+] (stereo not shown) [Example Compound 8, Sodium 3-{[3-[(E)-2-(7-chloroquinolin-2-yl)ethenyl]-5H-dibenzo[a,d]cyclohepten-5-yl]thio}propionate] |  | 5.3 µg/kg | melting point: 193 to 203 °C
10 | Sodium [3-[(E)-2-(7-chloroquinolin-2-yl)ethenyl]-5H-dibenzo[a,d]cyclohepten-5-yl]thioacetate [Example Compound 30] |  |  | pKi [1]: 9.7
11 | O=C([O-])COC1c2cc(/C=C/c3ccc4cc(F)c(Cl)cc4n3)ccc2C=Cc2c(Cl)cccc21.[Na+] (stereo not shown) [Example Compound 19, Sodium [3-[(E)-2-(7-chloro-6-fluoroquinolin-2-yl)ethenyl]-9-chloro-5H-dibenzo[a,d]cyclohepten-5-yl]oxy-acetate] |  |  | ED (2-fold shift of LTD4 dose-response) [2, 3]: 2.43 µg/kg

Second part, led by results:

Row | Ki [1] | Compound | ED (2-fold shift of LTD4 dose-response) ([2]; 24 h) | other results
12 | 0.1 nM | C[C@H](COC1c2ccccc2C=Cc2ccc(/C=C/c3ccc4cc(F)c(F)cc4n3)cc21)C(=O)[O-].[Na+] (stereo partly drawn) [Example Compound 10, Sodium 3-{[3-[(E)-2-(6,7-difluoroquinolin-2-yl)ethenyl]-5H-dibenzo[a,d]cyclohepten-5-yl]oxy}-2-(R)-methyl-propionate] |  | ED (2-fold shift of LTD4 dose-response) [2, 3]: 9.93 µg/kg
13 | 0.2 nM | O=C(O)CCOC1c2ccccc2C=Cc2ccc(/C=C/c3ccc4cc(F)c(Cl)cc4n3)cc21 (stereo not shown) [Example Compound 12, Sodium 3-{[3-[(E)-2-(7-chloro-6-fluoroquinolin-2-yl)ethenyl]-5H-dibenzo[a,d]cyclohepten-5-yl]oxy}propionate] |  | 
14 | 0.126 nM | O=C(O)COC1c2ccccc2C=Cc2ccc(/C=C/c3ccc4cc(F)c(Cl)cc4n3)cc21 (stereo not shown) [Example Compound 11, Sodium [3-[(E)-2-(7-chloro-6-fluoroquinolin-2-yl)ethenyl]-5H-dibenzo[a,d]cyclohepten-5-yl]oxyacetate] |  | 
15 | 0.251 nM | O=C(O)COC1c2ccccc2C=Cc2ccc(/C=C/c3ccc4ccc(Cl)cc4n3)cc21 (stereo not shown) [Example Compound 29, Sodium [3-[(E)-2-(7-chloroquinolin-2-yl)ethenyl]-5H-dibenzo[a,d]cyclohepten-5-yl]oxyacetate] |  | 
16 | 0.158 nM | O=C(O)COC1c2cc(/C=C/c3ccc4cc(F)c(Cl)cc4n3)ccc2C=Cc2c(F)cccc21 (stereo not shown) [Example Compound 17, Sodium [3-[(E)-2-(7-chloro-6-fluoroquinolin-2-yl)ethenyl]-9-fluoro-5H-dibenzo[a,d]cyclohepten-5-yl]oxy-acetate] |  | 
17 | 0.126 nM | C[C@H](COC1c2ccccc2C=Cc2ccc(/C=C/c3ccc4cc(F)c(Cl)cc4n3)cc21)C(=O)O (stereo partly drawn) [Example Compound 13, Sodium 3-{[3-[(E)-2-(7-chloro-6-fluoroquinolin-2-yl)ethenyl]-5H-dibenzo[a,d]cyclohepten-5-yl]oxy}-2-(R)-methylpropionate] |  | 
18 | 0.2 nM | O=C(O)CCSC1c2cc(/C=C/c3ccc4c(n3)CCCC4)ccc2C=Cc2c1cccc2C(F)(F)F (stereo not shown) [Example Compound 31, Sodium 3-{[3-[(E)-2-(5,6,7,8-tetrahydroquinolin-2-yl)ethenyl]-9-trifluoromethyl-5H-dibenzo[a,d]cyclohepten-5-yl]thio}propionate] |  | 
19 | 0.158 nM | O=C(O)CCSC1c2ccccc2C=Cc2ccc(/C=C/c3ccc4c(n3)CCCC4)cc21 (stereo not shown) [Example Compound 9, Sodium 3-{[3-[(E)-2-(5,6,7,8-tetrahydroquinolin-2-yl)ethenyl]-5H-dibenzo[a,d]cyclohepten-5-yl]thio}propionate] |  | 
20 | 0.1 nM | O=C([O-])COC1c2ccccc2C=Cc2ccc(/C=C/c3ccc4cc(F)c(F)cc4n3)cc21.[Na+] (stereo not shown) [Example Compound 3, Sodium [3-[(E)-2-(6,7-difluoroquinolin-2-yl)ethenyl]-5H-dibenzo[a,d]cyclohepten-5-yl]oxyacetate] |  | ED (2-fold shift of LTD4 dose-response) [2, 3]: 4.71 µg/kg; melting point: 213 to 227 °C
